Experimental data reported in patent publication US4820717A, “Antimicrobial aromatic derivatives substituted by an (omega amino) alkanol group and compositions containing them” (priority 1985, dated 1989).
≈ marks a conversion by molar mass, not a printed value.

How the values were obtained:
Type in all cases: cell-based
[1] = tested on: Pseudomonas aeruginosa CNCM A22; assay: Bactericidal activity (MBC), strain 3; conditions: CNCMA22, 20 min, strain 3, 20 minutes of contact, read-out: Minimum bactericidal concentration (MBC)
Text: (§1) The bactericidal activity of the products according to the invention has been analyzed on various strains by the method described hereafter:
(§2) A bacterial inoculum is placed in contact with different dilutions of the product to be tested, and this for a limited period of time. At the end of contact, an aliquot part of the mixture bacterial suspension/product is deposited on the surface of an agar culture medium containing an agent neutralizing the antibacterial activity of the product. The bactericidal concentration retained is the smallest concentration of the product from which bacteria stop growing. Said concentration is expressed in μg/ml.
(§3) The bacterial strains selected for the analysis are:
3--Pseudomonas aeruginosa CNCM A22;
(§4) The second strain is supported on a Worgel Fergusson medium, the other strains being supported on Tryptic Soy Agar-Difco (TSA) commercialized by Difco.
(§5) After a 24-hour culture period at 37° C., the microbial growth is collected by means of glass beads and of 10 ml of diluent containing 1 g of tryptone and 8.5 g of sodium chloride in 1000 ml of distilled water. The formed suspension is stirred and the percentage of light transmission at 620 nm is measured with a spectrophotometer:
(§6) The bacterial inoculum corresponds to a 1/20th dilution of this bacterial suspension.
(§7) Plates equipped with cupules receive different dilutions of the product to be analyzed. These dilutions are placed in contact with the different bacterial suspensions by means of a multiple-center inoculator. After 20 minutes of contact, aliquot parts are transferred by means of said inoculator on the surface of an agar medium (TSA) in Petri dishes, containing an activity-neutralizing agent, namely 20 g of lubrol W, 25 g of Tween 80 and 2.5 g of sodium thiosulfate in 1000 ml of TSA (Difco). The efficiency of the neutralizing agent is controlled for each product to be analyzed by depositing on the surface of the culture medium an aliquot part of the dilution of the product to be analyzed. After drying, the corresponding inoculum is deposited in the same place. An inoculum control is performed on an agar medium with or without neutralizing agent. Readings are taken after 48 hours of incubation at 37° C.

[2] = tested on: Encapsulated klebsiella pneumoniae R030; assay: Bactericidal activity (MBC), strain 2; conditions: 20 min, strain 2, 20 minutes of contact, read-out: Minimum bactericidal concentration (MBC)
Text: as §1, §2, §3
2--Encapsulated klebsiella pneumoniae R030;
as §4, §5, §6, §7

[3] = tested on: Escherichia Coli CNCM 54125; assay: Bactericidal activity (MBC), strain 1; conditions: 20 min, strain 1, 20 minutes of contact, read-out: Minimum bactericidal concentration (MBC)
Text: as §1, §2, §3
1--Escherichia Coli CNCM 54125;
as §4, §5, §6, §7

[4] = tested on: Streptococcus faecalis CNCM 5855; assay: Bactericidal activity (MBC), strain 4; conditions: Enterococcus faecalis, CNCM5855, 20 min; strain 4, 20 minutes of contact; read-out: Minimum bactericidal concentration (MBC)
Text: as §1, §2, §3
4--Streptococcus faecalis CNCM 5855;
as §4, §5, §6, §7

[5] = tested on: Staphylococcus aureus CNCM 53154; assay: Bactericidal activity (MBC), strain 5; conditions: CNCM53154, 20 min, strain 5, 20 minutes of contact, read-out: Minimum bactericidal concentration (MBC)
Text: as §1, §2, §3
5--Staphylococcus aureus CNCM 53154.
as §4, §5, §6, §7

[6] = tested on: Candida tropicalis 3834; assay: Antifungal activity (MFC), strain 2; conditions: 20 min; yeast strain 2; read-out: Minimum fongicidal concentration (MFC)
Text: as §2, §7
(§8) The antifungal activity of the products according to the invention was also determined with the aforedescribed method.
(§9) The fungal strains selected for the analysis are:
2--Candida tropicalis 3834;
(§10) These strains are supported on a Sabouraud Dextrose agar medium commercialized by Difco; the technique used is the same as that used in the analysis of the antibacterial activity. After 48 hours of culture at 37° C., the microbial growth is collected with glass beads and 5 ml of diluent containing 1 g of tryptone and 8.5 g of sodium chloride in 1000 ml of distilled water; 5 ml of the diluent are then added. […] A 1/100th dilution of this suspension, observed between slides under a microscope 40-lens, should show 10 cells per frame, this corresponding to 1,000,000 yeasts per ml.

[7] = tested on: Candida parakruzei 3918; assay: Antifungal activity (MFC), strain 3; conditions: 20 min; yeast strain 3; read-out: Minimum fongicidal concentration (MFC)
Text: as §2, §7, §8, §9
3--Candida parakruzei 3918;
as §10

[8] = tested on: Candida albicans CNCM 1180; assay: Antifungal activity (MFC), strain 1; conditions: 20 min; yeast strain 1; read-out: Minimum fongicidal concentration (MFC)
Text: as §2, §7, §8, §9
1--Candida albicans CNCM 1180;
as §10

[9] = tested on: Torulopsis glabrata 072023; assay: Antifungal activity (MFC), strain 4; conditions: 20 min; yeast strain 4; read-out: Minimum fongicidal concentration (MFC)
Text: as §2, §7, §8, §9, §10

Compound	MBC [1] [µg/mL]	MBC [2] [µg/mL]	MBC [3] [µg/mL]	MBC [4] [µg/mL]	MBC [5] [µg/mL]	MFC [6] [µg/mL]	MFC [7] [µg/mL]	MFC [8] [µg/mL]	MFC [9] [µg/mL]
OCC(CCCN1CCN(c2ccccc2)CC1)c1ccccc1 (stereo not shown) [SR 43 970 A, reference compound]	2000 (≈ 6160 µM)	5000 (≈ 15400 µM)	5000 (≈ 15400 µM)	10000 (≈ 30800 µM)	5000 (≈ 15400 µM)	–	–	–	–
Cl.OCC(CCN1CCC(Cc2ccccc2)CC1)c1ccc(Cl)c(Cl)c1 (stereo not shown) [SR 43 969 A, 4-(4-benzylpiperidino)-2-(3,4-dichlorophenyl)butanol hydrochloride]	500	100	50	100	50	50	100	50	500
CCC(CO)(CCN1CCCCC1)c1cccc2ccccc12.Cl (stereo not shown) [SR 43 245 A, 2-ethyl-2-(1-naphthyl)-4-piperidino-butanol hydrochloride]	800	1000	1500	1500	1000	–	–	–	–
OCC(CCN1CCCCCC1)c1c(Cl)cccc1Cl (stereo not shown) [SR 43 703 A]	400 (≈ 1260 µM)	600 (≈ 1900 µM)	600 (≈ 1900 µM)	800 (≈ 2530 µM)	1000 (≈ 3160 µM)	–	–	–	–
Cc1cccc(C(CO)CCN2CCC(Cc3ccccc3)CC2)c1 (stereo not shown) [SR 44 226 A]	500 (≈ 1480 µM)	1000 (≈ 2960 µM)	1000 (≈ 2960 µM)	1000 (≈ 2960 µM)	2000 (≈ 5930 µM)	–	–	–	–
OCC(CCN1CCc2ccccc2C1)c1cccc2ccccc12 (stereo not shown) [SR 43 247 A]	300 (≈ 905 µM)	300 (≈ 905 µM)	300 (≈ 905 µM)	300 (≈ 905 µM)	500 (≈ 1510 µM)	500 (≈ 1510 µM)	1000 (≈ 3020 µM)	1000 (≈ 3020 µM)	2000 (≈ 6030 µM)
CC1CCN(CCC(CO)c2cccc3ccccc23)CC1 (stereo not shown) [SR 43 382 A]	2000 (≈ 6720 µM)	2000 (≈ 6720 µM)	5000 (≈ 16800 µM)	5000 (≈ 16800 µM)	2000 (≈ 6720 µM)	1000 (≈ 3360 µM)	2000 (≈ 6720 µM)	5000 (≈ 16800 µM)	10000 (≈ 33600 µM)
OCC(CCN(C1CCCCC1)C1CCCCC1)c1cccc2ccccc12 (stereo not shown) [SR 44 227 A]	500 (≈ 1320 µM)	300 (≈ 790 µM)	100 (≈ 263 µM)	100 (≈ 263 µM)	500 (≈ 1320 µM)	–	–	–	–
OCC(CCN1CCC(Cc2ccccc2)CC1)c1ccc(-c2ccccc2)cc1 (stereo not shown) [SR 44 029 A]	50 (≈ 125 µM)	50 (≈ 125 µM)	10 (≈ 25 µM)	50 (≈ 125 µM)	50 (≈ 125 µM)	50 (≈ 125 µM)	50 (≈ 125 µM)	50 (≈ 125 µM)	100 (≈ 250 µM)
OCC(CCN1CCCCC1)c1ccc2ccccc2c1 (stereo not shown) [SR 43 154 A]	800 (≈ 2820 µM)	1500 (≈ 5290 µM)	2000 (≈ 7060 µM)	1500 (≈ 5290 µM)	1000 (≈ 3530 µM)	–	–	–	–
OCC(CCCCCN1CCC(Cc2ccccc2)CC1)c1cccc2ccccc12 (stereo not shown) [SR 43 941 A]	50 (≈ 120 µM)	50 (≈ 120 µM)	50 (≈ 120 µM)	50 (≈ 120 µM)	50 (≈ 120 µM)	100 (≈ 241 µM)	250 (≈ 602 µM)	100 (≈ 241 µM)	250 (≈ 602 µM)
OCC(CCN1CCCCCC1)c1ccc(Cl)c(Cl)c1 (stereo not shown) [SR 43 803 A]	500 (≈ 1580 µM)	400 (≈ 1260 µM)	400 (≈ 1260 µM)	400 (≈ 1260 µM)	400 (≈ 1260 µM)	500 (≈ 1580 µM)	500 (≈ 1580 µM)	1000 (≈ 3160 µM)	2000 (≈ 6320 µM)
CC1CCN(CCCC(CO)c2cccc3ccccc23)CC1 (stereo not shown) [SR 43 290 A]	800 (≈ 2570 µM)	800 (≈ 2570 µM)	1500 (≈ 4820 µM)	4000 (≈ 12800 µM)	800 (≈ 2570 µM)	–	–	–	–
OCC(CCN1CCCCCC1)c1ccc(Cl)cc1Cl (stereo not shown) [SR 43 802 A]	1000 (≈ 3160 µM)	1000 (≈ 3160 µM)	1000 (≈ 3160 µM)	2000 (≈ 6320 µM)	5000 (≈ 15800 µM)	–	–	–	–
CCN(CC)CCCCCCC(CO)c1cccc2ccccc12 (stereo not shown) [SR 43 940 A]	50 (≈ 153 µM)	50 (≈ 153 µM)	50 (≈ 153 µM)	50 (≈ 153 µM)	50 (≈ 153 µM)	–	–	–	–
OCC(CCN1CCC(Cc2ccccc2)CC1)c1ccccc1 (stereo not shown) [SR 43 705 A]	500 (≈ 1550 µM)	500 (≈ 1550 µM)	500 (≈ 1550 µM)	500 (≈ 1550 µM)	500 (≈ 1550 µM)	–	–	–	–
CCN(CC)CCCCCCCCCC(CO)c1cccc2ccccc12 (stereo not shown) [SR 43 826 A]	50 (≈ 135 µM)	50 (≈ 135 µM)	50 (≈ 135 µM)	50 (≈ 135 µM)	50 (≈ 135 µM)	50 (≈ 135 µM)	50 (≈ 135 µM)	250 (≈ 676 µM)	250 (≈ 676 µM)
OCC(CCCN1CCCCC1)c1cccc2ccccc12 (stereo not shown) [SR 43 087 A]	800 (≈ 2690 µM)	1000 (≈ 3360 µM)	1500 (≈ 5040 µM)	2000 (≈ 6720 µM)	800 (≈ 2690 µM)	1000 (≈ 3360 µM)	1000 (≈ 3360 µM)	1000 (≈ 3360 µM)	5000 (≈ 16800 µM)
CN1CCN(CCC(CO)c2cccc3ccccc23)CC1 (stereo not shown) [SR 43 291A, reference compound]	1000 (≈ 3350 µM)	3000 (≈ 10100 µM)	5000 (≈ 16800 µM)	> 10000	8000 (≈ 26800 µM)	–	–	–	–
